Values belong to the molecule of their own block, whether it stands above or below them.
Tests used:
rat = assay: Hepatotoxicity model (carbon tetrachloride), liver findings and urinary SBP1; format: in vivo
Protocol: (§1) The extracted proteins were dissolved, and transferred to a nitrocellulose membrane. Here, methanol was added to a transfer buffer, and the reaction was performed at 80 V for 1 hour. After the proteins were transferred, the membrane was stained with Ponceau S (within 10 seconds to 1 minute, slightly stained to see a band), and sufficiently washed with DW or PBS for blocking. Here, a blocking buffer was used by dissolving 3 to 5% bovine serum albumin (BSA) in a solution in which TWEEN™ 20 was contained in Tris-buffered saline (TBS). A primary antibody was reacted at 4° C. overnight, rinsed with a wash buffer (surfactant-containing TBS or PBS) to remove unbinding primary antibodies, and then secondary antibodies were reacted. After the secondary antibodies were reacted, unbinding secondary antibodies were rinsed with a washing buffer, and a band was identified using luminol.
To confirm whether urinary SBP1 is released in a hepatotoxicity model, a hepatotoxic material such as carbon tetrachloride (CCl4) was administered to a rat to induce hepatotoxicity, and then SBP1 level in urine was measured.

SD rats = assay: Drug (cisplatin)-induced renal failure animal model; format: in vivo, rat; conditions: 10 mg/kg I.P.
Protocol: On Day 1, Day 3 and Day 5 after the injection, protein contents in urine obtained for 24 hours were measured in rats of the cisplatin-administered experimental group and the untreated control.
as §1
A supernatant was obtained by centrifuging each urine sample at 3000 g for 15 minutes, and stored in a freezer at −80° C. Following the urine collection, experimental animals were anesthetized with carbon dioxide to collect blood from the abdominal aorta, and after natural death due to bleeding, the kidneys and liver were extracted. A supernatant was obtained by centrifuging each blood sample at 1500 g for 15 minutes, and stored in a freezer at −80° C. The obtained urine and blood samples were subjected to detection of conventional markers using a test kit corresponding to each parameter.

Sprague-Dawley rat = assay: Diabetic animal model induced by STZ administration (blood glucose, urine and renal failure markers); format: in vivo
Protocol: To verify a diabetic animal model induced by STZ administration according to Example 1-1 of the present invention, an experiment was carried out by designing the experimental model as described in FIG. 1A.
However, in an experimental group in which diabetic animals are treated with an antidiabetic drug, it was confirmed that a blood glucose level was decreased gradually on Day 7, Day 14 and Day 21, and decreased to almost the normal level on the last day, Day 28.
Then, it was confirmed whether renal failure occurs in a diabetic animal model induced by STZ administration. […] It can be seen that, in the anti-diabetic drug-administered group, the BUN and creatinine levels are decreased to a normal range.

[1] = after administration of hepatotoxic material
[2] = one day after administration, then decreased
[3] = STZ 50 mg/kg single dose I.P., rat

Structure (SMILES): ClC(Cl)(Cl)Cl [carbon tetrachloride]
BUN (rat; [1]): no changes | SBP1 in urine (western blotting) (rat; [1]): not detected | creatinine (rat; [1]): no changes | ALT level compared with the control (rat; [2]): increased | AST level compared with the control (rat; [2]): increased | hepatotoxicity, liver histopathology (H&E staining) (rat; rat liver, from one day after administration): severe liver failure was observed

Structure (SMILES): N.N.[Cl][Pt][Cl] [cisplatin]
BUN compared with the control (SD rats; Day 1): no significant differences | kidney tissue damage (histology) (SD rats; Day 1): mildly damaged | serum creatinine compared with the control (SD rats; Day 1): no significant differences | urinary SBP1 level (western blotting) (SD rats; Day 1): increased | BUN compared with the control (SD rats; Day 3): significantly increased | serum creatinine compared with the control (SD rats; Day 3): significantly increased | urinary SBP1 level compared with the control (SD rats; Day 3): highly increased | BUN, increase compared with the control (SD rats; Day 5): 3 to 5 fold | kidney tissue damage (histology) (SD rats; Day 5): most tubules were severely damaged | serum creatinine, increase compared with the control (SD rats; Day 5): 3 to 5 fold | urinary SBP1 level (western blotting) (SD rats; Day 5): detected at a very high level

BUN, increase compared to the control (Sprague-Dawley rat; STZ-administered group, rat): ≥ 2 fold | creatinine, increase compared to the control (Sprague-Dawley rat; STZ-administered group, rat): ≥ 2 fold | microalbumin in urine, increase compared to the control (Sprague-Dawley rat; STZ-administered group, rat): ≥ 10 fold | urine volume, increase compared to the control (Sprague-Dawley rat; diabetic animal induced by STZ administration): ≥ 3 fold
Structure (SMILES): CN(N=O)C(=O)N[C@@H](C=O)[C@@H](O)[C@H](O)[C@H](O)CO [STZ, streptozocin]
blood glucose level (Sprague-Dawley rat; [3]): ≥ 600 mg/dL | blood glucose level, increase compared to the control (Sprague-Dawley rat; [3]): ≥ 6 fold

— patent US11092610B2, “Biomarker SBP1 for early diagnosis of kidney diseases, and use thereof” (CELLGENTEK CO., LTD., priority 2016, dated 2021)
